Drawing on US6949544B2, “Inhibitors of c-Jun N-terminal kinases (JNK) and other protein kinases” (Vertex Pharmaceuticals Incorporated, priority 2001, dated 2005), this text covers Ki for 40 compounds.

Holding throughout (format): biochemical
For one test, the target named is CDK-2/Cyclin A (Homo sapiens, UniProt P24941). Kind of test: CDK2 inhibition assay (standard coupled enzyme assay). As to conditions: 25 nM CDK-2/Cyclin A; read-out: CDK2 Inhibitory Activity (Ki rating A-C). On the procedure: Compounds were screened in the following manner for their ability to inhibit CDK2 using a standard coupled enzyme assay (Fox et al (1998) Protein Sci 7, 2249).
To an assay stock buffer solution containing 0.1M HEPES 7.5, 10 mM MgCl2, 1 mM DTT, 25 mM NaCl, 2.5 mM phosphoenolpyruvate, […], […], […], […], and 100 μM peptide ([…], American Peptide, Sunnyvale, Calif.) was added a DMSO solution of a compound of the present invention to a final concentration of 30 μM. The resulting mixture was incubated at 30° C. for 10 minutes.
The reaction was initiated by the addition of 10 μL of CDK-2/Cyclin A stock solution to give a final concentration of 25 nM in the assay. The rates of reaction were obtained by monitoring absorbance at 340 nm over a 5-minute read time at 30° C. using a BioRad Ultramark plate reader (Hercules, Calif.). The Ki values were determined from the rate data as a function of inhibitor concentration.

Another test deals with T1, activated JNK3 (Homo sapiens, UniProt P53779).
T1 construct: One such construct encodes amino acid residues Ser40-Glu402 of JNK3α1 and is preceded by Met and Gly residues; Met-Gly (initiator methionine and added glycine) (N); made in house; host or cells: E. coli BL21 (DE3)
T1 sequence (P53779 40-402): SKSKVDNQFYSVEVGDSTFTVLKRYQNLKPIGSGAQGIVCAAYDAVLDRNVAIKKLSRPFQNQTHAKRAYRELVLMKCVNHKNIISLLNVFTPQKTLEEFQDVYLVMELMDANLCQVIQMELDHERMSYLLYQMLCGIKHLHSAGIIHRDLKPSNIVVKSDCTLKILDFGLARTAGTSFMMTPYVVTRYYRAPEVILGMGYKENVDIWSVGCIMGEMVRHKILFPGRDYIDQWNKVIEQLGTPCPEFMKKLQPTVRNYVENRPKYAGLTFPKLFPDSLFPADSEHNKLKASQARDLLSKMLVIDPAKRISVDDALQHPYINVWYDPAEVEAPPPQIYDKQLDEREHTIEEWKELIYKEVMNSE
Kind of test: JNK inhibition assay (spectrophotometric coupled-enzyme assay). To be noted: 10 nM activated JNK3, 10 μM ATP; read-out: Activity in the JNK3 Inhibition Assay (Ki rating A-C). From the text: A BLAST search of the EST database using the published JNK3α1 cDNA as a query identified an EST clone (#632588) that contained the entire coding sequence for human JNK3α1. Polymerase chain reactions (PCR) using pfu polymerase (Strategene) were used to introduce restriction sites into the cDNA for cloning into the pET-15B expression vector at the NcoI and BamHI sites. The protein was expressed in E. coli. […] This truncation corresponds to Ser 2 of JNK1 and JNK2 proteins, and is preceded by a methionine (initiation) and a glycine residue. The glycine residue was added in order to introduce an NcoI site for cloning into the expression vector. In addition, systematic C-terminal truncations were performed by PCR to identify a construct that give rise to diffraction-quality crystals.
5 mg of JNK3 was diluted to 0.5 mg/ml in 50 mM HEPES buffer, pH 7.5, containing 100 mM NaCl, 5 mM DTT, 20 mM MgCl2 and 1 mM ATP. GST-MKK7(DD) was added at a molar ratio of 1:2.5 GST-MKK7:JNK3. After incubation for 30 minutes at 25° C., the reaction mixture was concentrated 5-fold by ultrafiltration in a Centriprep-30 (Amicon, Beverly, Mass.), diluted to 10 ml and an additional 1 mM ATP added. This procedure was repeated three times to remove ADP and replenish ATP. The final addition of ATP was 5 mM and the mixture incubated overnight at 4° C.
The activated JNK3/GST-MKK7(DD) reaction mixture was exchanged into 50 mM HEPES buffer, pH 7.5, containing 5 mM DTT and 5% glycerol (w/v) by dialysis or ultrafiltration. The reaction mixture was adjusted to 1.1 M potassium phosphate, pH 7.5, and purified by hydrophobic interaction chromatography (at 25° C.) using a Rainin Hydropore column. […] Activated JNK3 (i.e. doubly phosphorylated JNK3) was stored at −70° C. at 0.25-1 mg/ml.
Compounds were assayed for the inhibition of JNK3 by a spectrophotometric coupled-enzyme assay. In this assay, a fixed concentration of activated JNK3 (10 nM) was incubated with various concentrations of a potential inhibitor dissolved in DMSO for 10 minutes at 30° C. in a buffer containing 0.1 M HEPES buffer, pH 7.5, containing 10 mM MgCl2, 2.5 mM phosphoenolpyruvate, 200 μM NADH, 150 μg/mL pyruvate kinase, 50 μg/mL lactate dehydrogenase, and 200 μM EGF receptor peptide. […] The reaction was initiated by the addition of 10 μM ATP and the assay plate is inserted into the spectrophotometer's assay plate compartment that was maintained at 30° C. The decrease of absorbance at 340 nm was monitored as a function of time. The rate data as a function of inhibitor concentration was fitted to competitive inhibition kinetic model to determine the Ki.

Test [1] has as its target T2, Lck kinase purified from bovine thymus (Bos taurus, UniProt Q3ZCM0).
T2 construct: Lck kinase purified from bovine thymus; purchased Upstate Biotechnology 14-106; host or cells: bovine thymus (tissue-purified)
Kind of test: Lck inhibition assay (33P incorporation into poly Glu-Tyr). As to conditions: 10 μM ATP; read-out: Activity in the Lck Inhibition Assay (Ki rating A-C). Here is the method:
The compounds were assayed as inhibitors of Lck kinase purified from bovine thymus (from Upstate Biotechnology, cat. no. 14-106). Lck kinase activity was monitored by following the incorporation of ^33P from ATP into the tyrosine of a random poly Glu-Tyr polymer substrate of composition, Glu:Tyr=4:1 (Sigma, cat. no. P-0275). The following were the final concentrations of the assay components: 0.05 M HEPES, pH 7.6, 10 mM MgCl2, 2 mM DTT, 0.25 mg/ml BSA, 10 μM ATP (1-2 μCi ^33P-ATP per reaction), 5 mg/ml poly Glu-Tyr, and 1-2 units of lck kinase. In a typical assay, all the reaction components with the exception of ATP were pre-mixed and aliquoted into assay plate wells. […] The assay plate was incubated at 30° C. for 10 min before initiating the reaction with ^33P-ATP. After 20 min of reaction, the reactions were quenched with 150 μl of 10% trichloroacetic acid (TCA) containing 20 mM Na3PO4. The quenched samples were then transferred to a 96-well filter plate (Whatman, UNI-Filter GF/F Glass Fiber Filter, cat no. 7700-3310) installed on a filter plate vacuum manifold. Filter plates were washed four times with 10% TCA containing 20 mM Na3PO4 and then 4 times with methanol. 200 μl of scintillation fluid was then added to each well. The plates were sealed and the amount of radioactivity associated with the filters was quantified on a TopCount scintillation counter.

T2 sequence (Q3ZCM0 1-509): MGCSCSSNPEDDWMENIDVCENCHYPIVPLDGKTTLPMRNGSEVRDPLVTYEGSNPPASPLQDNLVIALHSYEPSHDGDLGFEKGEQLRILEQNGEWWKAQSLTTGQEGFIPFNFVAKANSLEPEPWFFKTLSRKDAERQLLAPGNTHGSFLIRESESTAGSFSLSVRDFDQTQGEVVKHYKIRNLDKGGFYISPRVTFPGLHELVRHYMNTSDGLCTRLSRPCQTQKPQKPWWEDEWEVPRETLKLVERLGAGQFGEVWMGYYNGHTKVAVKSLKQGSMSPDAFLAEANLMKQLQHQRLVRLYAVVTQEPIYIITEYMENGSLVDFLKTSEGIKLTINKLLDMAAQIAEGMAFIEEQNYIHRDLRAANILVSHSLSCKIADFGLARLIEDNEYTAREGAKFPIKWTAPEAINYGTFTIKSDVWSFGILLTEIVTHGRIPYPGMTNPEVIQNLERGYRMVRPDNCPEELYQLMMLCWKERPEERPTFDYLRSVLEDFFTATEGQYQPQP

`COc1cc(-c2ccnc(Nc3c(F)cccc3F)n2)cc(OC)c1OC` [Compound I-2]: the Ki (commonly the equilibrium dissociation constant of an inhibitor or competing ligand from its target) is over 5000 nM at CDK-2/Cyclin A and 100 to 1000 nM on activated JNK3.

Turning to `COc1cc(-c2ccnc(Nc3ccccc3C)n2)cc(OC)c1OC` [Compound I-7], the Ki on CDK-2/Cyclin A is over 5000 nM; at activated JNK3, 100 to 1000 nM.

Turning to `COc1cc(-c2ccnc(Nc3c(C)cccc3C)n2)cc(OC)c1OC` [Compound I-8], the Ki on CDK-2/Cyclin A is over 5000 nM; at activated JNK3, over 1000 nM.

On to `COc1cc(-c2ccnc(Nc3ccc([N+](=O)[O-])cc3)n2)cc(OC)c1OC` [Compound I-11], for which the Ki was over 5000 nM at CDK-2/Cyclin A and under 100 nM at activated JNK3.

Consider `COc1cc(-c2ccnc(Nc3ccc(F)cc3)n2)cc(OC)c1OC` [Compound I-14], for which the Ki on activated JNK3 is over 1000 nM.

For `COc1cc(-c2ccnc(Nc3ccccc3)n2)cc(OC)c1OC` [Compound I-15], the Ki at CDK-2/Cyclin A is over 5000 nM; on activated JNK3, under 100 nM.

`COc1cc(-c2ccnc(Nc3ccccc3C)n2)cc(OC)c1OC` [Compound I-16]: the Ki on CDK-2/Cyclin A is over 5000 nM; on activated JNK3, under 100 nM.

For `COc1cc(-c2ccnc(Nc3ccc(C)cc3)n2)cc(OC)c1OC` [Compound I-17], the Ki on activated JNK3 is under 100 nM.

As for `COc1cc(-c2ccnc(Nc3cccc(C(F)(F)F)c3)n2)cc(OC)c1OC` [Compound I-19], the values for the Ki on CDK-2/Cyclin A and on activated JNK3 were over 5000 nM and under 100 nM, respectively.

Turning to `COc1ccc(Nc2nccc(-c3cc(OC)c(OC)c(OC)c3)n2)cc1` [Compound I-21], on activated JNK3, the Ki is under 100 nM.

As for `COc1cc(-c2ccnc(Nc3cc(Cl)cc(Cl)c3)n2)cc(OC)c1OC` [Compound I-23], the Ki on CDK-2/Cyclin A is over 5000 nM; on activated JNK3 it was under 100 nM.

Turning to `COc1cc(-c2ccnc(Nc3cc(C)cc(C)c3)n2)cc(OC)c1OC` [Compound I-24], the results for the Ki on CDK-2/Cyclin A and at activated JNK3 were over 5000 nM and 100 to 1000 nM, respectively.

For the compound `COc1cc(-c2ccnc(Nc3ccc(C)c(C)c3)n2)cc(OC)c1OC` [Compound I-25], the Ki at activated JNK3 was under 100 nM.

As for `COc1cc(-c2ccnc(Nc3ccccc3)n2)cc2c1OCO2` [Compound I-26, [4-(7-Methoxy-benzo[1,3]dioxol-5-yl)-pyrimidin-2-yl]-phenyl-amine], the Ki at CDK-2/Cyclin A is over 5000 nM; at activated JNK3, 100 to 1000 nM.

On to `COc1cc(-c2ccnc(Nc3cccc(C)c3)n2)cc2c1OCO2` [Compound I-27], for which the Ki on activated JNK3 was over 1000 nM.

On to `COc1cc(-c2ccnc(Nc3ccc(C)cc3)n2)cc2c1OCO2` [Compound I-28], for which the Ki at activated JNK3 was 100 to 1000 nM.

Regarding `COc1cc(-c2ccnc(Nc3cccc(F)c3)n2)cc2c1OCO2` [Compound I-29], the Ki at activated JNK3 lay within 100 to 1000 nM.

For the compound `COc1cc(-c2ccnc(Nc3cccc(Cl)c3)n2)cc2c1OCO2` [Compound I-30], the Ki at activated JNK3 was over 1000 nM.

On to `COc1cc(-c2ccnc(Nc3cccc(C(F)(F)F)c3)n2)cc2c1OCO2` [Compound I-31], for which the Ki on activated JNK3 was over 1000 nM.

On to `COc1cccc(Nc2nccc(-c3cc(OC)c4c(c3)OCO4)n2)c1` [Compound I-32], for which the Ki at CDK-2/Cyclin A was over 5000 nM; on activated JNK3, 100 to 1000 nM.

On to `COc1ccc(Nc2nccc(-c3cc(OC)c4c(c3)OCO4)n2)cc1` [Compound I-33], for which the results for the Ki on CDK-2/Cyclin A and at activated JNK3 were over 5000 nM and 100 to 1000 nM, respectively.

For the compound `COc1cc(-c2ccnc(Nc3cccc([N+](=O)[O-])c3)n2)cc(OC)c1OC` [Compound I-36], the Ki at CDK-2/Cyclin A was over 5000 nM; on activated JNK3, under 100 nM.

As for `CCOc1c(OC)cc(-c2ccnc(Nc3cccc(Cl)c3)n2)cc1OC` [Compound I-40], the results for the Ki on CDK-2/Cyclin A and at activated JNK3 were over 5000 nM and under 100 nM, respectively.

For `COc1cc(-c2ccnc(Nc3cccc(F)c3)n2)cc(OC)c1OCCN1CCOCC1` [Compound I-44], the Ki at CDK-2/Cyclin A was over 5000 nM; at activated JNK3 it was under 100 nM.

Turning to `CCOc1c(OC)cc(-c2ccnc(Nc3cccc(F)c3)n2)cc1OC` [Compound I-45], the Ki was over 5000 nM on CDK-2/Cyclin A and under 100 nM at activated JNK3.

On to `COc1c(Cl)cc(-c2ccnc(Nc3cccc(F)c3)n2)cc1Cl` [Compound I-46], for which the Ki is over 5000 nM on CDK-2/Cyclin A and 100 to 1000 nM on activated JNK3.

On to `COc1c(C)cc(-c2ccnc(Nc3cccc(F)c3)n2)cc1C` [Compound I-47], for which the Ki at activated JNK3 was under 100 nM.

As for `COc1cc(-c2ccnc(Nc3cccc(C)c3)n2)cc(OC)c1OCCN1CCOCC1` [Compound I-53], the Ki was over 5000 nM on CDK-2/Cyclin A and under 100 nM at activated JNK3.

Turning to `CCOc1c(OC)cc(-c2ccnc(Nc3cccc(C)c3)n2)cc1OC` [Compound I-54], the figures for the Ki on CDK-2/Cyclin A and at activated JNK3 were over 5000 nM and under 100 nM, respectively.

Take `COc1c(Cl)cc(-c2ccnc(Nc3cccc(C)c3)n2)cc1Cl` [Compound I-55]: the inhibition constant (Ki) at CDK-2/Cyclin A was over 5000 nM; on activated JNK3, under 100 nM.

For the compound `COc1cc(-c2ccnc(Nc3cccc(OCc4ccccc4)c3)n2)cc(OC)c1OC` [Compound I-56], the Ki at CDK-2/Cyclin A was over 5000 nM; at activated JNK3, over 1000 nM.

For `CCc1nnc(Nc2nccc(-c3cc(OC)c(OC)c(OC)c3)n2)s1` [Compound I-84], the Ki at activated JNK3 was over 1000 nM.

`COc1cc(-c2ccnc(Nc3cccc(Cl)c3)c2)cc(OC)c1OC` [Compound I-146, (3-Chlorophenyl)-[4-(3,4,5-trimethoxyphenyl)-pyridin-2-yl]-amine]: the Ki on activated JNK3 lay within 100 to 1000 nM.

Consider `COc1cc(-c2ccnc(Nc3ccccc3Cl)c2)cc(OC)c1OC` [Compound I-147], for which, at activated JNK3, the Ki fell in the range of 100 to 1000 nM.

Turning to `COc1cc(-c2ccnc(Nc3c(F)cccc3F)c2)cc(OC)c1OC` [Compound I-151], the Ki on activated JNK3 was in the range of 100 to 1000 nM.

Turning to `COc1cc(-c2ccnc(Nc3cccc(F)c3)c2)cc(OC)c1OC` [Compound I-154], the Ki at activated JNK3 fell in the range of 100 to 1000 nM.

For `COc1cc(-c2ccnc(Nc3ccccc3)c2)cc(OC)c1OC` [Compound I-155], the Ki on activated JNK3 fell in the range of 100 to 1000 nM.

With `COc1ccc(-c2ccnc(Nc3cccc(OCc4ccccc4)c3)n2)c(OC)c1OC` [II-2], in test [1], the Ki fell in the range of 100 to 1000 nM.

For `COc1ccc(-c2ccnc(Nc3ccc([N+](=O)[O-])cc3)n2)c(OC)c1OC` [II-4], the Ki in test [1] lay in the range of 100 to 1000 nM.

With `COc1ccc(-c2ccnc(Nc3n[nH]c4ccccc34)n2)c(OC)c1OC` [II-56], the Ki at CDK-2/Cyclin A was over 5000 nM.
